Source: patent US9533946B1, “N-carbamoylputrescine to enhance muscle protein synthesis” (CITRAGE, priority 2016, dated 2017)
Marks after values point to notes of the source that are not given here.

Experiments:
[1] = General effects of NCP-supplemented diet in rats (weight, behaviour, mortality, body composition); type: in vivo; conditions: for Initial weight: n = 7, before feeding period, mean ± SD; for Daily weight gain / Final weight / Weight gain: n = 7, mean ± SD
Protocol: (§1) Eight-week old Sprague-Dawley rats (Charles Rivers, Lyon, France) were used. They were placed in individual cages and acclimatized for two weeks to our animal facility. During this period they received standard rodent chow (A04, UAR, Villemoisson-sur-Orge, France) and water ad libitum.
(§2) After acclimatization twenty eight-month old rats were randomized into three groups in order to receive for two weeks a standard diet either alone (n=6; control group) or supplemented with NCP either 5 mg/kg/d (n=7, NCP5 group) or 50 mg/kg/d (n=7; NCP50 group). Their weight, behaviour and mortality were monitored throughout the feeding period.
(§3) At the end of the feeding period, the rats, in the fasted state, were anesthetized by isoflurane inhalation and euthanized by decapitation.
(§4) Mixed blood was collected onto heparinized tubes and rapidly centrifuged. The liver was immediately removed and weighed, and a sample was cut off, frozen in liquid nitrogen, and stored at −80° C. until analysis. For the jejunum and ileum, the intestine was washed with cold NaCl (0.9%) and reverted. Thereafter the intestinal mucosa was scraped, rapidly frozen in liquid nitrogen, and stored at −80° C. until analysis. Two muscles of the hindlimb, tibialis (rich in type II fibres) and soleus (rich in type I fibres), and the right kidney were rapidly removed, weighed, frozen in liquid nitrogen, and stored at −80° C. until analysis. Body composition was assessed by dissection and lean mass (carcass), visceral fat mass, sub-cutaneous fat mass (subcutaneous fat and skin) and mass of the viscera were determined.

[2] = Plasma biological parameters after NCP-supplemented diet in rats; type: in vivo
Protocol: as §1, §2, §3, §4
(§5) Biological parameters studied were: • in tissues: NCP, protein and amino acid contents • in plasma: amino acids, liver function tests (plasma aspartate aminotransferase, alanine aminotransferase, alkaline phosphatase, and bilirubin), muscle enzymes (plasma creatine kinase, and lactate dehydrogenase), plasma electrolytes (sodium, potassium, chloride, bicarbonates), total protein, urea, creatinine, calcium, phosphate, magnesium, uric acid, glucose, cholesterol and triglycerides. […]

[3] = system: soleus (rich in type I fibres); assay: Soleus protein content after NCP-supplemented diet in rats; type: in vivo, Sprague-Dawley rats
Protocol: as §1, §2, §3, §4, §5

[4] = system: soleus (rich in type I fibres); assay: Soleus amino acid content after NCP-supplemented diet in rats; type: in vivo, Sprague-Dawley rats; parameters: Soleus Serine content / Soleus Asparagine content / Soleus Glutamate content / Soleus Glycine content / Soleus Citrulline content / Soleus Valine content / Soleus Isoleucine content / Soleus Leucine content / Soleus Tyrosine content / Soleus Phenylalanine content / Soleus Ornithine content / Soleus Histidine content / Soleus Lysine content / Soleus Arginine content / Soleus Proline content / Soleus Taurine content / Soleus Aspartate content / Soleus Threonine content: unit not given here
Protocol: as §1
After acclimatization twenty eight-month old rats were randomized into three groups in order to receive for two weeks a standard diet either alone (n=6; control group) or supplemented with NCP either 5 mg/kg/d (n=7, […]; […]). Their weight, behaviour and mortality were monitored throughout the feeding period.
as §3, §4
Biological parameters studied were: • in tissues: NCP, protein and amino acid contents • in plasma: amino acids, liver function tests (plasma aspartate aminotransferase, alanine aminotransferase, alkaline phosphatase, and bilirubin), muscle enzymes (plasma creatine kinase, and lactate dehydrogenase), plasma electrolytes (sodium, potassium, chloride, bicarbonates), total protein, urea, creatinine, calcium, phosphate, magnesium, uric acid, glucose, cholesterol and triglycerides. Results General Effects of N-carbamoyl Putrescine

[5] = system: liver, kidney, tibialis, and jejunal and ileal mucosa; assay: Protein contents of other tissues after NCP-supplemented diet in rats; type: in vivo, Sprague-Dawley rats; conditions: between the three groups
Protocol: as §1, §2, §3
as §4, with “Two muscles of the hindlimb, tibialis (rich in type II fibres) and soleus (rich in type I fibres), and the right kidney were rapidly removed, weighed, frozen in liquid nitrogen, and stored at −80° C. until analysis.” left out, “determined. […]” for “determined.”

[6] = rats, NCP 5 mg/kg/d in diet, two weeks
[7] = rats, NCP 50 mg/kg/d in diet, two weeks
[8] = rats, NCP 5 or 50 mg/kg/d in diet, two weeks

NCCCCNC(N)=O [NCP, 1-(4-aminobutyl) urea]
side effects ([1]; mammals, after administration): no side effects were noticed
Initial weight ([1]; rats, NCP 5 mg/kg group): 264.9 ± 16 g
Daily weight gain [1, 6]: 3.44 ± 0.58 g/day
Final weight [1, 6]: 313.1 ± 18.1 g
Weight gain [1, 6]: 48.1 ± 8.1 g
Initial weight ([1]; rats, NCP 50 mg/kg group): 264.9 ± 8.2 g
Daily weight gain [1, 7]: 3.65 ± 0.62 g/day
Final weight [1, 7]: 316.1 ± 13.9 g
Weight gain [1, 7]: 51.2 ± 8.7 g
general behavior [1, 8]: No rats showed abnormal general behavior
weight gain compared to controls [1, 8]: no difference
body composition (lean mass, fat mass, mass of the viscera, liver mass) ([1]; rats, NCP 5 or 50 mg/kg/d vs control, data not shown): no difference between the groups
Plasma urea ([2]; NCP50 group vs NCP5, FIG. 1): higher
Plasma urea ([2]; the two NCP-supplemented groups compared to control rats): no difference
plasma electrolytes, hepatic and muscular enzymes, creatinine, glucose, cholesterol, triglycerides and uric acid levels ([2]; three groups (control, NCP5, NCP50), data not shown): No difference
protein level in soleus ([3]; NCP5 group (5 mg/kg/d, two weeks), control 12.7±1.8, p=0.018 vs control): 14.5±0.7 g/100 g
protein level in soleus vs control group ([3]; NCP5 vs control, p=0.018): higher
protein level in soleus ([3]; NCP50 group (50 mg/kg/d, two weeks), control 12.7±1.8): 14.0±0.8 g/100 g
Soleus Alanine content ([4]; NCP 5 mg/kg, n = 7, mean ± SD): 1735 ± 385^ab μmol/g
Soleus Arginine content ([4]; NCP 5 mg/kg, n = 7, mean ± SD): 381 ± 115
Soleus Asparagine content ([4]; NCP 5 mg/kg, n = 7, mean ± SD): 519 ± 106
Soleus Aspartate content ([4]; NCP 5 mg/kg, n = 7, mean ± SD): 4195 ± 703
Soleus Citrulline content ([4]; NCP 5 mg/kg, n = 7, mean ± SD): 351 ± 53
Soleus Glutamate content ([4]; NCP 5 mg/kg, n = 7, mean ± SD): 3753 ± 684
Soleus Glutamine content ([4]; NCP 5 mg/kg, n = 7, mean ± SD): 7605 ± 1016^ab μmol/g
Soleus Glycine content ([4]; NCP 5 mg/kg, n = 7, mean ± SD): 1932 ± 516
Soleus Histidine content ([4]; NCP 5 mg/kg, n = 7, mean ± SD): 415 ± 50^a μmol/g
Soleus Isoleucine content ([4]; NCP 5 mg/kg, n = 7, mean ± SD): 83 ± 17
Soleus Leucine content ([4]; NCP 5 mg/kg, n = 7, mean ± SD): 103 ± 23
Soleus Lysine content ([4]; NCP 5 mg/kg, n = 7, mean ± SD): 933 ± 222
Soleus Ornithine content ([4]; NCP 5 mg/kg, n = 7, mean ± SD): 75 ± 12
Soleus Phenylalanine content ([4]; NCP 5 mg/kg, n = 7, mean ± SD): 75 ± 19
Soleus Proline content ([4]; NCP 5 mg/kg, n = 7, mean ± SD): 196 ± 42
Soleus Serine content ([4]; NCP 5 mg/kg, n = 7, mean ± SD): 1933 ± 384
Soleus Taurine content ([4]; NCP 5 mg/kg, n = 7, mean ± SD): 23882 ± 2585
Soleus Threonine content ([4]; NCP 5 mg/kg, n = 7, mean ± SD): 512 ± 109
Soleus Tyrosine content ([4]; NCP 5 mg/kg, n = 7, mean ± SD): 106 ± 15
Soleus Valine content ([4]; NCP 5 mg/kg, n = 7, mean ± SD): 182 ± 22
Soleus Alanine content ([4]; NCP 50 mg/kg, n = 6, mean ± SD): 2025 ± 182^b μmol/g
Soleus Arginine content ([4]; NCP 50 mg/kg, n = 6, mean ± SD): 395 ± 62
Soleus Asparagine content ([4]; NCP 50 mg/kg, n = 6, mean ± SD): 538 ± 124
Soleus Aspartate content ([4]; NCP 50 mg/kg, n = 6, mean ± SD): 4742 ± 1443
Soleus Citrulline content ([4]; NCP 50 mg/kg, n = 6, mean ± SD): 379 ± 65
Soleus Glutamate content ([4]; NCP 50 mg/kg, n = 6, mean ± SD): 4074 ± 390
Soleus Glutamine content ([4]; NCP 50 mg/kg, n = 6, mean ± SD): 8547 ± 988^b μmol/g
Soleus Glycine content ([4]; NCP 50 mg/kg, n = 6, mean ± SD): 2145 ± 153
Soleus Histidine content ([4]; NCP 50 mg/kg, n = 6, mean ± SD): 494 ± 6
Soleus Isoleucine content ([4]; NCP 50 mg/kg, n = 6, mean ± SD): 91 ± 22
Soleus Leucine content ([4]; NCP 50 mg/kg, n = 6, mean ± SD): 113 ± 32
Soleus Lysine content ([4]; NCP 50 mg/kg, n = 6, mean ± SD): 1009 ± 168
Soleus Ornithine content ([4]; NCP 50 mg/kg, n = 6, mean ± SD): 74 ± 15
Soleus Phenylalanine content ([4]; NCP 50 mg/kg, n = 6, mean ± SD): 77 ± 11
Soleus Proline content ([4]; NCP 50 mg/kg, n = 6, mean ± SD): 199 ± 26
Soleus Serine content ([4]; NCP 50 mg/kg, n = 6, mean ± SD): 1964 ± 248
Soleus Taurine content ([4]; NCP 50 mg/kg, n = 6, mean ± SD): 25223 ± 1987
Soleus Threonine content ([4]; NCP 50 mg/kg, n = 6, mean ± SD): 571 ± 67
Soleus Tyrosine content ([4]; NCP 50 mg/kg, n = 6, mean ± SD): 126 ± 21
Soleus Valine content ([4]; NCP 50 mg/kg, n = 6, mean ± SD): 194 ± 24
concentration of Glutamine, alanine and histidine in soleus muscle ([4]; with NCP administration, positive correlation of glutamine and alanine with dose (p=0.015, p=0.013)): significantly increased
liver, kidney, tibialis, and jejunal and ileal mucosa protein contents [5]: similar
